Source: patent publication US12065416B2, “cGAS antagonist compounds” (IMMUNESENSOR THERAPEUTICS, INC., priority 2016, dated 2024)

How the values were obtained:
[1] = target: T1, recombinant cGAS (aa147-522) (Homo sapiens, UniProt Q8N884); assay: In vitro assay for inhibition of cGAS activity (ATP consumption, Kinase Glo); type: biochemical; conditions: 37° C. 20 minutes, read-out: Activity (Inhibition of cGAS enzyme activity in vitro, IC50)
T1 construct: recombinant cGAS (aa147-522); His6-SUMO (N, cleaved yes); made in house; host or cells: E. coli BL21/pLys
In short: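 Human cGAS (aa147-522) at 1.5 ng/μL incubated with serially diluted compound at 37° C for 20 min; remaining ATP read by Kinase Glo luminescence. IC50 from percent ATP consumption plotted against log compound concentration.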

[2] = test system: cGAS activity in THP1 cells; assay: Cellular assay: ISRE-Gaussia luciferase reporter THP1 cells transfected with ISD (Interferon Stimulatory DNA); type: cell-based; conditions: Homo sapiens, THP-1; ISRE-Gaussia luciferase reporter THP1 cells transfected with 2 μg/mL ISD, 16 hours; read-out: THP1-ISD (Inhibition of cGAS activity in THP1 cells, IC50)
Experimental: (§1) A reporter THP1 cell line harboring a gene encoding Gaussia Luciferase under the control of 5 tandem repeats of interferon-stimulated response elements (ISRE) was used to test inhibition of cGAS activity by synthetic compounds in human cells. These cells were plated on 96-well plates at 0.3×10^6/well and incubated with various concentrations of compounds or DMSO for 5 min, followed by transfection of 2 μg/mL of ISD (Interferon Stimulatory DNA, a 45 bp DNA oligo) or mock transfected using lipofectamine 2000 (Life Technology) method, according to manufacturer's instructions. 16 hours later, 15 μL of the media from each well is transferred to a new plate, 50 μL of solution containing 50 mM Hepes-NaOH, 50 mM NaCl, 10 mM EDTA, 1 μM of coeleanterazine was added to each well and luminescence was measured immediately. Fold increase in luminescence compared to mock transfection is plotted against concentrations of each compound, and IC50 is calculated using Graphpad. To evaluate the specificity of a compound, the same procedure was performed except that cells were transfected with 2 μg/mL poly(I:C) or infected with Sendai Virus (SeV) at 50 Unit/mL, which are known to activate the RIG-I-MAVS pathway. A specific inhibitory compound should inhibit interferon induction by DNA but have minimal effect on poly(I:C) or Sendai virus induced interferon reporter gene expression.

RIG-I-MAVS pathway = assay: Specificity assay: ISRE reporter THP1 cells infected with Sendai Virus (SeV); type: cell-based; conditions: Homo sapiens, THP-1; ISRE-Gaussia luciferase reporter THP1 cells infected with Sendai Virus (SeV) at 50 Unit/mL
Experimental: as §1

T1 sequence (Q8N884 147-522): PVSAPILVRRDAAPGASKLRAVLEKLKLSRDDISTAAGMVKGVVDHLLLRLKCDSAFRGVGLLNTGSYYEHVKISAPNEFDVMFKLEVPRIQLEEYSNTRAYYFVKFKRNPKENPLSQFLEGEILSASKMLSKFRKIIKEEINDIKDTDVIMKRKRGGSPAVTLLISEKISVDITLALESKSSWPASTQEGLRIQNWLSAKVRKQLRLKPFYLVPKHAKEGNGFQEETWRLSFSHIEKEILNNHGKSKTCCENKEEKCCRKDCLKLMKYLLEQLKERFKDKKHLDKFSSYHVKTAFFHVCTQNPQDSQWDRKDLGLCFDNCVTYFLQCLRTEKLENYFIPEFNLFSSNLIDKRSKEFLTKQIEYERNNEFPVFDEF

Row | SMILES | IC50 [1] | IC50 [2] | IC50 (RIG-I-MAVS pathway)
1 | CN1C(=O)S/C(=C\c2cc(Oc3ccc(N)nc3)c(O)cc2Br)C1=O [Ex234] | ≥ 10000 nM | 2500 to 10000 nM | ≥ 10000 nM
2 | Nc1ncc(COc2cc(/C=C3\Sc4ncccc4C3=O)c(Br)c(F)c2O)cn1 [Ex123] | ≤ 500 nM | ≤ 2500 nM | ≥ 10000 nM
3 | CC(Oc1cc(/C=C2\SC(=O)N(C)C2=O)c(Br)cc1O)c1cncnc1N (stereo not drawn) [Ex80] | ≤ 500 nM | 2500 to 10000 nM | ≥ 10000 nM
4 | COCCNc1ncc(COc2cc(/C=C3\Sc4ncccc4C3=O)c(Br)cc2O)cn1 [Ex197] | ≤ 500 nM | 2500 to 10000 nM | ≥ 10000 nM
5 | CN1C(=O)S/C(=C\c2cc(OCc3cn[nH]c3)c(O)cc2Br)C1=O [Ex92] | ≤ 500 nM | ≤ 2500 nM | ≥ 10000 nM
6 | CN1C(=O)S/C(=C\c2cc(OCc3cnc([S+](C)[O-])nc3)c(O)cc2Br)C1=O (stereo not drawn) [Ex213] | ≤ 500 nM | 2500 to 10000 nM | ≥ 10000 nM
7 | CN1C(=O)S/C(=C\c2cc(OCc3cncnc3)c(O)cc2Br)C1=O [Ex140] | ≤ 500 nM | ≤ 2500 nM | ≥ 10000 nM
8 | O=C1/C(=C/c2cc(OCc3cncnc3)c(O)cc2Br)Sc2ncccc21 [Ex193] | ≤ 500 nM | 2500 to 10000 nM | ≥ 10000 nM
9 | CN1C(=O)S/C(=C\c2cc(OCc3cnc(NCc4ccncc4)nc3)c(O)cc2Br)C1=O [Ex157] | ≤ 500 nM | 2500 to 10000 nM | ≥ 10000 nM
10 | C[S+]([O-])c1ncc(COc2cc(/C=C3\Sc4ncccc4C3=O)c(Br)c(F)c2O)cn1 (stereo not drawn) [ExA15] | 500 to 10000 nM | 2500 to 10000 nM | ≥ 10000 nM
11 | CN1C(=O)S/C(=C\c2cc(OCc3cncnc3N)c(O)cc2Br)C1=O [Ex141] | ≤ 500 nM | ≤ 2500 nM | ≥ 10000 nM
12 | Cc1nc(N)ncc1COc1cc(/C=C2\SC(=O)N(C)C2=O)c(Br)cc1O [Ex170] | ≤ 500 nM | ≤ 2500 nM | ≥ 10000 nM
13 | CNc1ncc(COc2cc(/C=C3\Sc4ncccc4C3=O)c(Br)c(F)c2O)cn1 [ExA1] | ≤ 500 nM | 2500 to 10000 nM | ≥ 10000 nM
14 | O=C1/C(=C/c2cc(CC(F)(F)F)c(O)cc2Br)Sc2ncccc21 [ExB21] | ≤ 500 nM | 2500 to 10000 nM | ≥ 10000 nM
15 | CN1C(=O)S/C(=C\c2cc(OCc3cnc(NCc4cccnc4)nc3)c(O)cc2Br)C1=O [Ex156] | ≤ 500 nM | 2500 to 10000 nM | ≥ 10000 nM
16 | CN1C(=O)S/C(=C\c2cc(OCc3cnc(NCc4ccccn4)nc3)c(O)cc2Br)C1=O [Ex155] | ≤ 500 nM | 2500 to 10000 nM | ≥ 10000 nM
17 | C[S+]([O-])c1ncc(COc2cc(/C=C3\Sc4ncccc4C3=O)c(Br)cc2O)cn1 (stereo not drawn) [Ex216] | ≤ 500 nM | ≤ 2500 nM | 2500 to 10000 nM
18 | CN1C(=O)S/C(=C\c2cc(OCc3ncc(N)cn3)c(O)cc2Br)C1=O [Ex139] | 500 to 10000 nM | 2500 to 10000 nM | ≥ 10000 nM
19 | CC(Oc1cc(/C=C2\SC(=O)N(C)C2=O)c(Br)c(F)c1O)c1cnc(N)nc1C(F)(F)F (stereo not drawn) [ExA7] | ≤ 500 nM | 2500 to 10000 nM | ≥ 10000 nM
20 | Nc1ncncc1COc1cc(/C=C2\Sc3ncccc3C2=O)c(Br)cc1O [Ex73] | ≤ 500 nM | 2500 to 10000 nM | ≥ 10000 nM
21 | CN1C(=O)S/C(=C\c2cc(OCc3cnc(Cl)nc3)c(O)cc2Br)C1=O [Ex93] | ≤ 500 nM | 2500 to 10000 nM | ≥ 10000 nM
22 | O=C1/C(=C/c2cc(OCc3cnc(NCc4cccnc4)nc3)c(O)c(F)c2Br)Sc2ncccc21 [ExA3] | ≤ 500 nM | 2500 to 10000 nM | ≥ 10000 nM
23 | CN1C(=O)S/C(=C\c2cc(OCCc3cnc(N)nc3)c(O)c(F)c2Br)C1=O [ExB3] | ≤ 500 nM | ≤ 2500 nM | ≥ 10000 nM
24 | O=C1/C(=C/c2cc(OC(F)(F)F)c(O)cc2Br)Sc2ncccc21 [Ex70] | 500 to 10000 nM | 2500 to 10000 nM | ≥ 10000 nM
25 | COCCNc1ncc(COc2cc(/C=C3\SC(=O)N(C)C3=O)c(Br)c(F)c2O)cn1 [Ex153] | ≤ 500 nM | 2500 to 10000 nM | ≥ 10000 nM
26 | CNc1ncc(COc2cc(/C=C3\SC(=O)N(C)C3=O)c(Br)cc2O)cn1 [Ex148] | ≤ 500 nM | ≤ 2500 nM | ≥ 10000 nM
27 | COc1cc(/C=C2\SC(=O)N(C)C2=O)c(Br)cc1O [Ex28] | ≤ 500 nM | ≤ 2500 nM | ≥ 10000 nM
